The target in assay [1] is T1, Peroxisome proliferator-activated receptor gamma (Homo sapiens) (UniProt P37231).
T1 sequence (whole entry): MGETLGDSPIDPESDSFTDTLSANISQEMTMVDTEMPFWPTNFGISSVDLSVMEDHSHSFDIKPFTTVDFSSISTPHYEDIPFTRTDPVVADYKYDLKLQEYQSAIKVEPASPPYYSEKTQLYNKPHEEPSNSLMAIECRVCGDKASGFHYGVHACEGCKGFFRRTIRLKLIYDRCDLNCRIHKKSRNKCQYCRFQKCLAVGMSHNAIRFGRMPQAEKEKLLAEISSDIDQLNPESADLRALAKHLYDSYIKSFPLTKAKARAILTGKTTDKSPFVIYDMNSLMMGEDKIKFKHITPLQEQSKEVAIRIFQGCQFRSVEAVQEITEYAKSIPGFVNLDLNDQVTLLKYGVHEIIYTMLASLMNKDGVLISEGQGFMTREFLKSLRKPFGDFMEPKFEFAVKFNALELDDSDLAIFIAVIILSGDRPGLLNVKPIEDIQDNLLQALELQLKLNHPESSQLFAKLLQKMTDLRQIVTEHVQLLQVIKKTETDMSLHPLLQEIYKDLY
Nature of the assay: Partial agonist activity at PPARgamma (unknown origin) assessed as induction of receptor transactivation at 0.1 to 10 uM relative to 10 uM pioglitazone.

Assay [2] addresses T1, Peroxisome proliferator-activated receptor gamma (Homo sapiens). Nature of the assay: Antagonist activity at PPARgamma (unknown origin) assessed as inhibition of 10 uM pioglitazone-induced receptor transactivation at 0.1 to 10 uM.

The source made the active and inactive calls. The rule behind the calls is not given here.

As for `CCCOc1ccc(C(=O)NS(=O)(=O)Cc2ccccc2)cc1CNC(=O)c1ccc(-c2ncccn2)cc1`, in assay [1], the result was Active. The inhibition entry in assay [2] was “Dose-dependent effect”.

The values above are taken from ChEMBL document CHEMBL3588857, “Peroxisome proliferator-activated receptor gamma (PPARγ) has multiple binding points that accommodate ligands in various conformations: Structurally similar PPARγ partial agonists bind to PPARγ LBD in different conformations” (Bioorg Med Chem Lett, 2015).
